Source: PubChem BioAssay (NCI)
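Tested at 5 concentrations; 48 h exposure; 96-well plates; endpoints linearly interpolated, else capped at highest concentration. TGI marks complete inhibition of growth.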

Tests used:
Assay in all cases: NCI anticancer screen, dose series, 48 h
NCI-H226 lung = system: NCI-H226 lung
786-0 renal = system: 786-0 renal
ACHN renal = system: ACHN renal
SK-MEL-5 melanoma = system: SK-MEL-5 melanoma
A498 renal = system: A498 renal
HT29 colon = system: HT29 colon
MOLT-4 leukemia = system: MOLT-4 leukemia
M14 melanoma = system: M14 melanoma
HCC-2998 colon = system: HCC-2998 colon
NCI-H23 lung = system: NCI-H23 lung
UO-31 renal = system: UO-31 renal
SF-268 CNS = system: SF-268 CNS
HL-60(TB) leukemia = system: HL-60(TB) leukemia
U251 CNS = system: U251 CNS
HOP-62 NSCLC = system: HOP-62 NSCLC
HCT-116 colon = system: HCT-116 colon
NCI/ADR-RES ovarian = system: NCI/ADR-RES ovarian
NCI-H522 lung = system: NCI-H522 lung
SK-MEL-2 melanoma = system: SK-MEL-2 melanoma
K-562 leukemia = system: K-562 leukemia
SK-MEL-28 melanoma = system: SK-MEL-28 melanoma
MDA-MB-435 = system: MDA-MB-435
SW-620 colon = system: SW-620 colon
CCRF-CEM leukemia = system: CCRF-CEM leukemia
TK-10 renal = system: TK-10 renal
SNB-19 CNS = system: SNB-19 CNS
SF-539 CNS = system: SF-539 CNS
MCF7 breast = system: MCF7 breast
CAKI-1 renal = system: CAKI-1 renal
EKVX NSCLC = system: EKVX NSCLC
T-47D breast = system: T-47D breast
SNB-75 CNS = system: SNB-75 CNS
UACC-257 melanoma = system: UACC-257 melanoma
HCT-15 colon = system: HCT-15 colon
SF-295 CNS = system: SF-295 CNS
OVCAR-4 ovarian = system: OVCAR-4 ovarian
RPMI-8226 leukemia = system: RPMI-8226 leukemia
A549 NSCLC = system: A549 NSCLC
OVCAR-3 ovarian = system: OVCAR-3 ovarian
UACC-62 melanoma = system: UACC-62 melanoma
IGROV1 ovarian = system: IGROV1 ovarian
OVCAR-5 ovarian = system: OVCAR-5 ovarian
NCI-H460 lung = system: NCI-H460 lung
HS 578T breast = system: HS 578T breast
MDA-MB-231 breast = system: MDA-MB-231 breast
BT-549 breast = system: BT-549 breast
DU-145 prostate = system: DU-145 prostate
MALME-3M melanoma = system: MALME-3M melanoma
SK-OV-3 ovarian = system: SK-OV-3 ovarian
HOP-92 NSCLC = system: HOP-92 NSCLC
SN12C renal = system: SN12C renal
COLO 205 colon = system: COLO 205 colon
KM12 colon = system: KM12 colon
LOX IMVI melanoma = system: LOX IMVI melanoma

Which TGI (NCI-H226 lung) does the source give for `CC(C)C[P+](c1ccccc1)(c1ccccc1)c1ccccc1` here?
Its TGI is over 100 µM.

And the TGI (786-0 renal)?
Its TGI is over 100 µM.

And the TGI (ACHN renal)?
The TGI was over 100 µM.

And the TGI (SK-MEL-5 melanoma)?
The TGI was 18.2 µM.

And the TGI (A498 renal)?
Its TGI is over 100 µM.

And the TGI (HT29 colon)?
Its TGI is over 100 µM.

And the TGI (MOLT-4 leukemia)?
Its TGI is over 100 µM.

What about the TGI (M14 melanoma) of the same compound?
The TGI was over 100 µM.

What about the TGI (HCC-2998 colon) of the same compound?
The TGI was over 100 µM.

And the TGI (NCI-H23 lung)?
The TGI was over 100 µM.

And the TGI (UO-31 renal)?
Its TGI is over 100 µM.

And the TGI (SF-268 CNS)?
Its TGI is over 100 µM.

And the TGI (HL-60(TB) leukemia)?
Its TGI is 24 µM.

What about the TGI (U251 CNS) of the same compound?
The TGI was over 100 µM.

What about the TGI (HOP-62 NSCLC) of the same compound?
The TGI was over 100 µM.

And the TGI (HCT-116 colon)?
Its TGI is over 100 µM.

And the TGI (NCI/ADR-RES ovarian)?
The TGI was over 100 µM.

And the TGI (NCI-H522 lung)?
The TGI was over 100 µM.

And the TGI (SK-MEL-2 melanoma)?
Its TGI is 41.7 µM.

And the TGI (K-562 leukemia)?
Its TGI is over 100 µM.

And the TGI (SK-MEL-28 melanoma)?
The TGI was over 100 µM.

What about the TGI (MDA-MB-435) of the same compound?
The TGI was 25 µM.

And the TGI (SW-620 colon)?
The TGI was over 100 µM.

What about the TGI (CCRF-CEM leukemia) of the same compound?
Its TGI is 11.1 µM.

And the TGI (TK-10 renal)?
Its TGI is 66.5 µM.

What about the TGI (SNB-19 CNS) of the same compound?
The TGI was over 100 µM.

What about the TGI (SF-539 CNS) of the same compound?
Its TGI is over 100 µM.

What about the TGI (MCF7 breast) of the same compound?
The TGI was over 100 µM.

And the TGI (CAKI-1 renal)?
Its TGI is 37.8 µM.

What about the TGI (EKVX NSCLC) of the same compound?
The TGI was 30 µM.

And the TGI (T-47D breast)?
The TGI was over 100 µM.

What about the TGI (SNB-75 CNS) of the same compound?
The TGI was over 100 µM.

What about the TGI (UACC-257 melanoma) of the same compound?
Its TGI is 4.19 µM.

And the TGI (HCT-15 colon)?
Its TGI is over 100 µM.

And the TGI (SF-295 CNS)?
Its TGI is 90.5 µM.

And the TGI (OVCAR-4 ovarian)?
The TGI was over 100 µM.

What about the TGI (RPMI-8226 leukemia) of the same compound?
Its TGI is 0.033 µM.

What about the TGI (A549 NSCLC) of the same compound?
The TGI was over 100 µM.

And the TGI (OVCAR-3 ovarian)?
Its TGI is 84.6 µM.

And the TGI (UACC-62 melanoma)?
The TGI was over 100 µM.

And the TGI (IGROV1 ovarian)?
Its TGI is over 100 µM.

What about the TGI (OVCAR-5 ovarian) of the same compound?
The TGI was over 100 µM.

And the TGI (NCI-H460 lung)?
Its TGI is over 100 µM.

And the TGI (HS 578T breast)?
The TGI was over 100 µM.

What about the TGI (MDA-MB-231 breast) of the same compound?
The TGI was over 100 µM.

What about the TGI (BT-549 breast) of the same compound?
The TGI was over 100 µM.

What about the TGI (DU-145 prostate) of the same compound?
Its TGI is over 100 µM.

What about the TGI (MALME-3M melanoma) of the same compound?
Its TGI is 83.6 µM.

And the TGI (SK-OV-3 ovarian)?
Its TGI is 87.4 µM.

And the TGI (HOP-92 NSCLC)?
The TGI was 26.3 µM.

And the TGI (SN12C renal)?
The TGI was over 100 µM.

What about the TGI (COLO 205 colon) of the same compound?
The TGI was 15.7 µM.

What about the TGI (KM12 colon) of the same compound?
Its TGI is 20.7 µM.

What about the TGI (LOX IMVI melanoma) of the same compound?
The TGI was over 100 µM.
